Data taken from US7820623B2 (priority 2006, dated 2010).
Where two headings read alike, the source gives them in different places. Bridge positions count the residues as written; N and C are the ends. Square brackets hold non-standard residues; d marks the D form. Peptide text beside a SMILES is read from it. 1Nal = N[C@@H](Cc1cccc2ccccc12)C(=O)O

Key:
human Kv1.3 (CHO) = biological target: T1, human Kv1.3 (CHO) (Homo sapiens, UniProt P22001); assay: cell-based; format: cell-based
T1 construct: expressed in transfected cells

[1] = test system: thapsigargin-induced IFN-g production in human whole blood; format: cell-based; conditions: for IC50: read-out: Analogue Activity (IC50) WB/IFNg
[2] = test system: thapsigargin-induced IL-2 production in human whole blood; conditions: for IC50: read-out: Analogue Activity (IC50) WB/IL-2
human Kv1.3 [3] = biological target: T2, human Kv1.3 (Homo sapiens, UniProt P22001); format: cell-based; parameters: expressed in transfected cells
human Kv1.1 (HEK293) = biological target: T3, human Kv1.1 (HEK293) (Homo sapiens, UniProt Q09470); assay: cell-based
T3 construct: expressed in transfected cells; host or cells: HEK293

human Kv1.3 [4] = biological target: T2, human Kv1.3; assay: cell-based
[5] = read-out: IC50 for block of the outward potassium current

T1 sequence (P22001 whole entry): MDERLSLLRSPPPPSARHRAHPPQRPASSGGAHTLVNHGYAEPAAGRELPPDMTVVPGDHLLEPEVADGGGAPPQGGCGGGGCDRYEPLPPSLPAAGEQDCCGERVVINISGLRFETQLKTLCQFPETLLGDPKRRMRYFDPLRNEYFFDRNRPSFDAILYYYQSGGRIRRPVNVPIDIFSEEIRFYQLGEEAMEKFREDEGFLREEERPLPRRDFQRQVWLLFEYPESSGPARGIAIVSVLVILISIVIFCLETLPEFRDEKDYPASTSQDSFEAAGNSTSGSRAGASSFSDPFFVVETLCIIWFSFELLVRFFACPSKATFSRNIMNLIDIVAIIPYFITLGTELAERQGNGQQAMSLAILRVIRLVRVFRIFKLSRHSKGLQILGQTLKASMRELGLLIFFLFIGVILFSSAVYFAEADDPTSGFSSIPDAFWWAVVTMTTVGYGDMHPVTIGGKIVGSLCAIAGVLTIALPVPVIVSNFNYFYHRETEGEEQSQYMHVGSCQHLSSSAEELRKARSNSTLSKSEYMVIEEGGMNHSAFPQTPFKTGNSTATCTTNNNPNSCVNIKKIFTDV
T2 sequence (P22001 whole entry): as above
T3 sequence (Q09470 whole entry): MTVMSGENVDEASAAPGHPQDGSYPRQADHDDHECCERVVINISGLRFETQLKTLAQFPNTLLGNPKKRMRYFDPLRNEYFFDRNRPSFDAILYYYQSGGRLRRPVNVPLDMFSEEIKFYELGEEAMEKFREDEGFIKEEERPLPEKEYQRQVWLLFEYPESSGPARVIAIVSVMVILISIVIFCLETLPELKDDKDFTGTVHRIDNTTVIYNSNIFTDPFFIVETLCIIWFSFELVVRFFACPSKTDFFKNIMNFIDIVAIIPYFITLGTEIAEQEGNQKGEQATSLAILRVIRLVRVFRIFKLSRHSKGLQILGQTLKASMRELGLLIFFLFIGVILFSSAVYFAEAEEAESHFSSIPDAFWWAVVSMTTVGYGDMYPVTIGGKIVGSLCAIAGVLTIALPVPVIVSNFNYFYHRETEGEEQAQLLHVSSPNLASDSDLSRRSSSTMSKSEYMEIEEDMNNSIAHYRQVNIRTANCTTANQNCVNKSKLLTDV

CC[C@H](C)[C@@H]1NC(=O)[C@H](CCCCN)NC(=O)[C@@H](NC(=O)[C@H](CCCCN)NC(=O)[C@@H](NC(=O)[C@H](CC(N)=O)NC(=O)[C@@H](NC(=O)[C@@H](NC(=O)[C@@H](NC(=O)CN)C(C)C)[C@@H](C)CC)[C@@H](C)CC)C(C)C)CSSC[C@@H]2NC(=O)[C@H](CCCCN)NC(=O)CNC(=O)[C@H](Cc3ccccc3)NC(=O)[C@H](CCCNC(=N)N)NC(=O)[C@H](CCSC)NC(=O)CNC(=O)[C@H](C)NC(=O)[C@H](CCCCN)NC(=O)[C@H](CCCCN)NC(=O)[C@@H]3CSSC[C@@H](C(=O)N[C@H](C(=O)N4CCC[C@H]4C(=O)N[C@@H](CCCCN)C(=O)O)[C@@H](C)O)NC(=O)[C@H](Cc4c[nH]cn4)NC(=O)[C@H](CSSC[C@H](NC(=O)[C@H](CCC(N)=O)NC(=O)[C@H](CCCNC(=N)N)NC(=O)[C@H](CO)NC1=O)C(=O)N[C@@H](CC(C)C)C(=O)N[C@@H](CCC(=O)O)C(=O)N1CCC[C@H]1C(=O)N3)NC(=O)[C@H](CCCCN)NC(=O)CNC(=O)[C@H](Cc1cccc3ccccc13)NC(=O)[C@H](CCSC)NC2=O [N30Nal] (H-GVIINVKCKISRQCLEPCKKAGMRFGKCM[1Nal]GKCHCTPK-OH; disulfide 8-28, 14-33, 18-35)
IC50 (human Kv1.3 (CHO)): > 3.33 nM
IC50 [1]: 37 nM

CC[C@H](C)[C@@H]1NC(=O)[C@H](CCCCN)NC(=O)[C@@H](NC(=O)[C@H](CCCCN)NC(=O)[C@@H](NC(=O)[C@H](CC(N)=O)NC(=O)[C@@H](NC(=O)[C@@H](NC(=O)[C@@H](NC(=O)CN)C(C)C)[C@@H](C)CC)[C@@H](C)CC)C(C)C)CSSC[C@@H]2NC(=O)[C@H](CCCCN)NC(=O)CNC(=O)[C@H](Cc3ccccc3)NC(=O)[C@H](CCCNC(=N)N)NC(=O)[C@H](CCSC)NC(=O)CNC(=O)[C@H](C)NC(=O)[C@H](CCCCN)NC(=O)[C@H](CCCCN)NC(=O)[C@@H]3CSSC[C@@H](C(=O)N[C@H](C(=O)N4CCC[C@H]4C(=O)N[C@@H](CCCCN)C(=O)O)[C@@H](C)O)NC(=O)[C@H](Cc4c[nH]cn4)NC(=O)[C@H](CSSC[C@H](NC(=O)[C@H](CCC(N)=O)NC(=O)[C@H](CCCNC(=N)N)NC(=O)[C@H](CO)NC1=O)C(=O)N[C@@H](CC(C)C)C(=O)N[C@@H](CCC(=O)O)C(=O)N1CCC[C@H]1C(=O)N3)NC(=O)[C@H](CCCCN)NC(=O)CNC(=O)[C@H](CC(N)=O)NC(=O)[C@H](C)NC2=O [OSK1[Ala-29]] (H-GVIINVKCKISRQCLEPCKKAGMRFGKCANGKCHCTPK-OH; disulfide 8-28, 14-33, 18-35)
inhibition of Kv1.3 current and selectivity over Kv1.1 by IonWorks (human Kv1.3 (CHO)): potent inhibition of the Kv1.3 current and improved selectivity over Kv1.1
potency relative to cyclosporin A in blocking the cytokine response [2]: several orders of magnitude more potent
IC50 (human Kv1.3 [3]; read-out: IC50 on CHO/Kv1.3): 0.033 nM

CC[C@H](C)[C@@H]1NC(=O)[C@H](CCCCN)NC(=O)[C@@H](NC(=O)[C@H](CCCCN)NC(=O)[C@@H](NC(=O)[C@H](CC(N)=O)NC(=O)[C@@H](NC(=O)[C@@H](NC(=O)[C@@H](NC(=O)CN)C(C)C)[C@@H](C)CC)[C@@H](C)CC)C(C)C)CSSC[C@@H]2NC(=O)[C@H](CCCCN)NC(=O)CNC(=O)[C@H](Cc3ccccc3)NC(=O)[C@H](CCCNC(=N)N)NC(=O)[C@H](CCSC)NC(=O)CNC(=O)[C@H](C)NC(=O)[C@H](CCCCN)NC(=O)[C@H](CCCCN)NC(=O)[C@@H]3CSSC[C@@H](C(=O)N[C@H](C(=O)N4CCC[C@H]4C(=O)N[C@@H](CCCCN)C(=O)O)[C@@H](C)O)NC(=O)[C@H](Cc4c[nH]cn4)NC(=O)[C@H](CSSC[C@H](NC(=O)[C@H](CCC(N)=O)NC(=O)[C@H](C)NC(=O)[C@H](CO)NC1=O)C(=O)N[C@@H](CC(C)C)C(=O)N[C@@H](CCC(=O)O)C(=O)N1CCC[C@H]1C(=O)N3)NC(=O)[C@H](CCCCN)NC(=O)CNC(=O)[C@H](CC(N)=O)NC(=O)[C@H](CCSC)NC2=O [R12A] (H-GVIINVKCKISAQCLEPCKKAGMRFGKCMNGKCHCTPK-OH; disulfide 8-28, 14-33, 18-35)
IC50 [1]: 0.155 nM
IC50 [2]: 0.123 nM
Kv1.3 Selectivity (= Kv1.1/Kv.3 IC50) (human Kv1.3 [3]): 17

CC[C@H](C)[C@@H]1NC(=O)[C@H](CCCCN)NC(=O)[C@@H](NC(=O)[C@H](CCCCN)NC(=O)[C@@H](NC(=O)[C@H](CC(N)=O)NC(=O)[C@@H](NC(=O)[C@@H](NC(=O)[C@@H](NC(=O)CN)C(C)C)[C@@H](C)CC)[C@@H](C)CC)C(C)C)CSSC[C@@H]2NC(=O)[C@H](CCCCN)NC(=O)CNC(=O)[C@H](Cc3ccccc3)NC(=O)[C@H](CCCNC(=N)N)NC(=O)[C@H](CCSC)NC(=O)CNC(=O)[C@H](C)NC(=O)[C@H](CCCCN)NC(=O)[C@H](CCCCN)NC(=O)[C@@H]3CSSC[C@@H](C(=O)N[C@H](C(=O)N4CCC[C@H]4C(=O)N[C@@H](CCCCN)C(=O)O)[C@@H](C)O)NC(=O)[C@H](Cc4c[nH]cn4)NC(=O)[C@H](CSSC[C@H](NC(=O)[C@H](CCC(N)=O)NC(=O)[C@H](CCCNC(=N)N)NC(=O)[C@H](CCC(=O)O)NC1=O)C(=O)N[C@@H](CC(C)C)C(=O)N[C@@H](CCC(=O)O)C(=O)N1CCC[C@H]1C(=O)N3)NC(=O)[C@H](CCCCN)NC(=O)CNC(=O)[C@H](CC(N)=O)NC(=O)[C@H](CCSC)NC2=O [S11E] (H-GVIINVKCKIERQCLEPCKKAGMRFGKCMNGKCHCTPK-OH; disulfide 8-28, 14-33, 18-35)
IC50 (human Kv1.3 (CHO)): > 3.33 nM
IC50 (human Kv1.1 (HEK293)): > 3.33 nM

CC[C@H](C)[C@@H]1NC(=O)[C@H](CCCCN)NC(=O)[C@@H](NC(=O)[C@H](CCCCN)NC(=O)[C@@H](NC(=O)[C@H](CC(N)=O)NC(=O)[C@@H](NC(=O)[C@@H](NC(=O)[C@@H](NC(=O)CN)C(C)C)[C@@H](C)CC)[C@@H](C)CC)C(C)C)CSSC[C@@H]2NC(=O)[C@H](CCCCN)NC(=O)CNC(=O)[C@H](Cc3ccccc3)NC(=O)[C@H](CCCNC(=N)N)NC(=O)[C@H](CCSC)NC(=O)CNC(=O)[C@H](C)NC(=O)[C@H](CCCCN)NC(=O)[C@H](CCCCN)NC(=O)[C@@H]3CSSC[C@@H](C(=O)N[C@H](C(=O)N4CCC[C@H]4C(=O)N[C@@H](CCCCN)C(=O)O)[C@@H](C)O)NC(=O)[C@H](Cc4c[nH]cn4)NC(=O)[C@H](CSSC[C@H](NC(=O)[C@H](CCC(N)=O)NC(=O)[C@H](CCCNC(=N)N)NC(=O)[C@H](CCCNC(=N)N)NC1=O)C(=O)N[C@@H](CC(C)C)C(=O)N[C@@H](CCC(=O)O)C(=O)N1CCC[C@H]1C(=O)N3)NC(=O)[C@H](CCCCN)NC(=O)CNC(=O)[C@H](CC(N)=O)NC(=O)[C@H](CCSC)NC2=O [S11R] (H-GVIINVKCKIRRQCLEPCKKAGMRFGKCMNGKCHCTPK-OH; disulfide 8-28, 14-33, 18-35)
IC50 [1]: 4.07 nM
IC50 [2]: 2.12 nM
Kv1.3 Selectivity (= Kv1.1/Kv.3 IC50) (human Kv1.3 [3]): 228

CC[C@H](C)[C@@H]1NC(=O)[C@@H](NC(=O)[C@@H](N)CO)CSSC[C@@H](C(=O)O)NC(=O)[C@H]([C@@H](C)O)NC(=O)CNC(=O)[C@@H]2CSSC[C@@H]3NC(=O)[C@H](CCC(N)=O)NC(=O)[C@H](Cc4ccccc4)NC(=O)[C@H](C)NC(=O)[C@H]([C@@H](C)O)NC(=O)[C@H](CSSC[C@H](NC(=O)[C@H](Cc4ccccc4)NC(=O)[C@H](CO)NC(=O)[C@H](CC(C)C)NC(=O)[C@H](CCCNC(=N)N)NC(=O)[C@H](Cc4ccc(O)cc4)NC(=O)[C@H](CCCCN)NC(=O)[C@H](CCSC)NC(=O)[C@H](CO)NC(=O)[C@H](Cc4c[nH]cn4)NC(=O)[C@H](CCCCN)NC3=O)C(=O)N[C@@H](CCCNC(=N)N)C(=O)N[C@@H](CCCCN)C(=O)N[C@@H]([C@@H](C)O)C(=O)N2)NC(=O)[C@H](CCCNC(=N)N)NC(=O)[C@H](CO)NC(=O)[C@H](CCCCN)NC(=O)[C@@H]2CCCN2C(=O)[C@H]([C@@H](C)CC)NC(=O)[C@H]([C@@H](C)O)NC(=O)[C@H](CC(=O)O)NC1=O [ShK[2-35]] (H-SCIDTIPKSRCTAFQCKHSMKYRLSFCRKTCGTC-OH; disulfide 2-34, 11-27, 16-31)
IC50 (human Kv1.3 [4]): 0.049 ± 0.005 nM

CC[C@H](C)[C@@H]1NC(=O)[C@H](CCCCN)NC(=O)[C@@H](NC(=O)[C@H](CCCCN)NC(=O)[C@@H](NC(=O)[C@H](CC(N)=O)NC(=O)[C@@H](NC(=O)[C@@H](NC(=O)[C@@H](NC(=O)CN)C(C)C)[C@@H](C)CC)[C@@H](C)CC)C(C)C)CSSC[C@@H]2NC(=O)[C@H](CCCCN)NC(=O)CNC(=O)[C@H](Cc3ccccc3)NC(=O)[C@H](CCCNC(=N)N)NC(=O)[C@H](CCSC)NC(=O)CNC(=O)[C@H](C)NC(=O)[C@H](CCCCN)NC(=O)[C@H](CCCCN)NC(=O)[C@@H]3CSSC[C@@H](C(=O)N[C@@H](CCC(=O)O)C(=O)N4CCC[C@H]4C(=O)N[C@@H](CCCCN)C(=O)O)NC(=O)[C@H](Cc4c[nH]cn4)NC(=O)[C@H](CSSC[C@H](NC(=O)[C@H](CCC(N)=O)NC(=O)[C@H](CCCNC(=N)N)NC(=O)[C@H](CO)NC1=O)C(=O)N[C@@H](CC(C)C)C(=O)N[C@@H](CCC(=O)O)C(=O)N1CCC[C@H]1C(=O)N3)NC(=O)[C@H](CCCCN)NC(=O)CNC(=O)[C@H](CC(N)=O)NC(=O)[C@H](CCSC)NC2=O [T36E] (H-GVIINVKCKISRQCLEPCKKAGMRFGKCMNGKCHCEPK-OH; disulfide 8-28, 14-33, 18-35)
IC50 [1]: 2.42 nM
IC50 [2]: 1.74 nM
Kv1.3 Selectivity (= Kv1.1/Kv.3 IC50) (human Kv1.3 [3]): 44

E. coli-derived Fc-L-OSK1
IC50 (human Kv1.3 [4]; read-out: Kv1.3 IC50 by WCVC): 3.2 nM

E. coli-derived Fc-L-ShK[1-35]
IC50 (human Kv1.3 [4]; read-out: Kv1.3 IC50 by WCVC): 1.4 nM

E. coli-derived Fc-L-ShK[2-35]
IC50 (human Kv1.3 [4]; read-out: Kv1.3 IC50 by WCVC): 1.3 nM
IC50 (human Kv1.3 (CHO); read-out: Kv1.3 IC50 by IWQ): 2.8 nM

E. coli-derived ShK[2-35]-L-Fc
IC50 (human Kv1.3 (CHO); read-out: Kv1.3 IC50 by IWQ): 4.9 nM

E. coli-derived Shk[1-35]-L-Fc
IC50 (human Kv1.3 (CHO); read-out: Kv1.3 IC50 by IWQ): 2.4 nM

Fc-L5-ShK[2-35]: human IgG1 Fc fused via 5 amino acid linker to ShK[2-35]
IC50 (human Kv1.3 [4]; [5]): 0.1 nM

Fc-L10-ShK[2-35]: human IgG1 Fc fused via 10 amino acid linker to ShK[2-35]
IC50 (human Kv1.3 [4]; [5]): 0.115 ± 0.018 nM
thapsigargin-induced IFN-g production in human whole blood [1]: suppressed
stability in whole blood [2]: stable in whole blood
thapsigargin-induced IL-2 production in human whole blood [2]: suppressed
times more potent than cyclosporine A in blocking IL-2 production (IC50) [2]: more than 200 times

Fc-L-KTX1: Fc-linker fusion of Kaliotoxin1 (KTX1)
block of human Kv1.3 current (human Kv1.3 [4]): blocked the human Kv1.3 current in a dose-dependent fashion
